Laboratory results: patent publication US8273761B2, “Tricyclic compound and medical use thereof” (Takeda Pharmaceutical Company Limited, priority 2006, dated 2012)

What was measured:
[1] = target: T1, human melatonin 2 receptors (human MT2 receptors) (Homo sapiens, UniProt P49286); test: Melatonin receptor binding inhibitory test (MT2); settings: 2-[125I] Iodomelatonin 1 nM solution, membrane fraction of CHO-hMT2 cells, 25° C. for 2.5 hr
T1 construct: expressed in transfected cells
T1 sequence (P49286 1-362): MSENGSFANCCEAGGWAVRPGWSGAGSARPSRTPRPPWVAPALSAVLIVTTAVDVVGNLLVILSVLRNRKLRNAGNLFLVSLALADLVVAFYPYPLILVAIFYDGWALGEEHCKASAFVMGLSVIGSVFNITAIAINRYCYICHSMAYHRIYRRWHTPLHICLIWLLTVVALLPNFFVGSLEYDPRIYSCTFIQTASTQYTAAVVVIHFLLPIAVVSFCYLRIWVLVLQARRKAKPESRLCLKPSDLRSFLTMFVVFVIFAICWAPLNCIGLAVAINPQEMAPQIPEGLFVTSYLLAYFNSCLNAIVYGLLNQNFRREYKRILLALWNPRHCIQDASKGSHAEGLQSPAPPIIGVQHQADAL
Method: Melatonin Receptor Binding Inhibitory Test (2) Preparation of CHO-hMT2 Cells Expressing Human Melatonin 2 Receptors A cDNA fragment (SEQ ID NO: 2) encoding full-length of human melatonin 2 receptors (human MT2 receptors) was incorporated into expression vector pCMV-Script (Stratagene, #212220) to give the plasmid that was pCMV-human MT2 receptors expression vector for animal cell expression. CHO-K1 cells (ATCC, #CCL-61) were plated at the concentration of 1.5×10^5 cells/cm^2 in a 6 well plate (ASAHI TECHNO GLASS), and cultured under the conditions of 37° C., 5% CO2 for 24 hr. For gene transfection, solution obtained by blending pCMV-human MT2 receptors expression vector (1.9 μg), Lipofectamine Transfection Reagent (Invitrogen, #18324-012) (11.3 μL) and Minimum Essential Medium Eagle (MEM) medium (Sigma, M8042) (93.8 μL), and reacting at room temperature for 20 min was added to the cells per one well. The transfected cells were cultured in MEM medium containing 10% FBS (Life Technology) and 300 μg/mL Geneticin (GIBCO, #10131), and the cell line that stably expressed the plasmid gene was selected. By a receptor binding assay using 2-[^125I] […] (3) Preparation of Cellular Membrane Fraction of CHO Cell (CHO-hMelR7 and CHO-hMT2) Stably Expressing Human MT1 and MT2 Receptors CHO-hMelR7 and CHO-hMT2 cells were plated using Cellfactory (Nunc, #170009) under the conditions of 1×10^8 cells/2000 mL/flask. The cells were grown to confluent, and recovered by the following method. As the medium for CHO-hMelR7 and CHO-hMT2, MEM α containing 10% FBS and penicillin/streptomycin was used. 300 ng/mL of geneticin was added to the medium for CHO-hMT2. The medium was discarded, cells were washed twice with 200 mL of EDTA/PBS(-), 200 mL of EDTA/PBS(-) was further added, and the cells were stood still at room temperature for 20 min until they were released. The cells were recovered in four 50 mL tubes (Becton Dickinson, #352070), and centrifuged at 1,500 rpm for 10 min at 4° C. using a low speed cooling centrifuge (Hitachi, CF7D2). The supernatant was discarded, the pellets in the four tubes were suspended in 10 mL of PBS(-), and combined in one tube (Becton Dickinson, #352070). The mixture was further centrifuged at 1,500 rpm for 10 min at 4° C., and the obtained pellets were suspended in 20 mL of ice-cooled homogenizing buffer [10 mM NaHCO3, 5 mM EDTA, Protease inhibitor Complete (Roche), pH 7.4]. The cell suspension was homogenized 3 times using a polytron homogenizer at 20,000 rpm for 30 sec. The obtained homogenate was centrifuged (2,000 rpm, 10 min, 4° C.) using a low speed cooling centrifuge. The supernatant was recovered in an ultracentrifugation tube and ultracentrifuged (40,000 rpm, 60 min, 4° C.) using an ultracentrifuge (Beckman, […]). To the obtained pellets was added a suspending buffer [50 mM Tris-HCl, 1 mM EDTA, Protease inhibitor Complete (Roche), pH 7.4], and the pellets were suspended by pipetting. The protein concentration of this suspension was measured, diluted to 2 mg/mL to give cellular membrane fractions of CHO-hMelR7 and CHO-hMT2 cells. […] Protein was quantified using BCA protein assay kit (Pierce) with BSA as the standard. (4) Preparation of Membrane Fraction Suspension Immediately before use, the membrane fractions of CHO-hMelR7 and CHO-hMT2 cells of the above-mentioned (3) were diluted 20-fold with assay buffer (50 mM Tris-HCl, pH 7.7). (5) Preparation of 2-[^125I] […] (6) Binding Reaction The assay buffer (80 μL) of the above-mentioned (4) was added to each well of a 96-well plate (type 3363, Corning). […] (7) Measurement Using a cell harvester (PerkinElmer), the binding reaction mixture in each well of the 96-well plate was transferred to a treated (immersed in 50 mM Tris, pH 7.7 in advance) filter plate (UniFilter GF/C, PerkinElmer) and filtered.

[2] = target: T2, human melatonin 1 receptors (human MT1 receptors) (Homo sapiens, UniProt P48039); test: Melatonin receptor binding inhibitory test (MT1); settings: 2-[125I] Iodomelatonin 400 pM solution, membrane fraction of CHO-hMelR7 cells, 25° C. for 2.5 hr
T2 construct: expressed in transfected cells
Method: Biochim Biophys Acta. Vol. 1219(2), pp. 251-259, 1994) to give plasmid pAKKO-hMelR7 for animal cell expression. CHO/dhfr-cells (ATCC, #CRL-9096) were plated at a concentration of 0.3×10^6 cells/dish in a 6 cm culture dish (Becton Dickinson), and cultured under the conditions of 37° C., 5% CO2 for 48 hr. The cells were transfected with pAKKO-hMelR7 plasmid DNA (5 μg) using […] Transfection Kit (Amersham, #27-9268-01). The transfected cells were cultured in Dulbecco's modified Eagle medium (DMEM) (Sigma, #D6046) containing 10% dialyzed FBS ([…]), 1× Non-Essential Amino Acid (Invitrogen, #11140-050) and 50 μg/mL Gentamycin (Invitrogen, #15750-060), and the cell line that stably expressed the plasmid gene was selected. By a receptor binding assay using 2-[^125I] […] (3) Preparation of Cellular Membrane Fraction of CHO Cell (CHO-hMelR7 and CHO-hMT2) Stably Expressing Human MT1 and MT2 Receptors CHO-hMelR7 and CHO-hMT2 cells were plated using Cellfactory (Nunc, #170009) under the conditions of 1×10^8 cells/2000 mL/flask. The cells were grown to confluent, and recovered by the following method. As the medium for CHO-hMelR7 and CHO-hMT2, MEM α containing 10% FBS and penicillin/streptomycin was used. 300 ng/mL of geneticin was added to the medium for CHO-hMT2. The medium was discarded, cells were washed twice with 200 mL of EDTA/PBS(-), 200 mL of EDTA/PBS(-) was further added, and the cells were stood still at room temperature for 20 min until they were released. The cells were recovered in four 50 mL tubes (Becton Dickinson, #352070), and centrifuged at 1,500 rpm for 10 min at 4° C. using a low speed cooling centrifuge (Hitachi, CF7D2). The supernatant was discarded, the pellets in the four tubes were suspended in 10 mL of PBS(-), and combined in one tube (Becton Dickinson, #352070). The mixture was further centrifuged at 1,500 rpm for 10 min at 4° C., and the obtained pellets were suspended in 20 mL of ice-cooled homogenizing buffer [10 mM NaHCO3, 5 mM EDTA, Protease inhibitor Complete (Roche), pH 7.4]. The cell suspension was homogenized 3 times using a polytron homogenizer at 20,000 rpm for 30 sec. The obtained homogenate was centrifuged (2,000 rpm, 10 min, 4° C.) using a low speed cooling centrifuge. The supernatant was recovered in an ultracentrifugation tube and ultracentrifuged (40,000 rpm, 60 min, 4° C.) using an ultracentrifuge (Beckman, […]). To the obtained pellets was added a suspending buffer [50 mM Tris-HCl, 1 mM EDTA, Protease inhibitor Complete (Roche), pH 7.4], and the pellets were suspended by pipetting. The protein concentration of this suspension was measured, diluted to 2 mg/mL to give cellular membrane fractions of CHO-hMelR7 and CHO-hMT2 cells. […] Protein was quantified using BCA protein assay kit (Pierce) with BSA as the standard. (4) Preparation of Membrane Fraction Suspension Immediately before use, the membrane fractions of CHO-hMelR7 and CHO-hMT2 cells of the above-mentioned (3) were diluted 20-fold with assay buffer (50 mM Tris-HCl, pH 7.7). (5) Preparation of 2-[^125I] […] (6) Binding Reaction The assay buffer (80 μL) of the above-mentioned (4) was added to each well of a 96-well plate (type 3363, Corning). […] (7) Measurement Using a cell harvester (PerkinElmer), the binding reaction mixture in each well of the 96-well plate was transferred to a treated (immersed in 50 mM Tris, pH 7.7 in advance) filter plate (UniFilter GF/C, PerkinElmer) and filtered. After filtration, the plate was washed 4 times with the assay buffer, and dried in a dryer (42° C.) for 2 hr or more. 25 μL of a liquid scintillator (MicroScint O, PerkinElmer) was added to each well of the filter plate after drying, and the luminescence of scintillator was measured by TopCount (PerkinElmer) for 1 min. Specific binding is a value obtained by subtracting nonspecific binding from the total binding.

T2 sequence (P48039 whole entry): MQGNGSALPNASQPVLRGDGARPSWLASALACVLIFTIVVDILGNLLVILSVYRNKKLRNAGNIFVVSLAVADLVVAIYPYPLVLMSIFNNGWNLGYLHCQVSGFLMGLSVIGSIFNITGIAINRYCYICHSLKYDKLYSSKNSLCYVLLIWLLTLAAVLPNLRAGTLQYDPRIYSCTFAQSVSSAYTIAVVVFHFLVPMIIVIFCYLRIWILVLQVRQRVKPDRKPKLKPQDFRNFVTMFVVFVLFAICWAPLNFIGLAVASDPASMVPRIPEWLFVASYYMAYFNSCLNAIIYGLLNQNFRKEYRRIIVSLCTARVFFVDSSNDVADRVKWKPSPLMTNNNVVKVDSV

| Compound | IC50 [1] | melting point | IC50 [2] |
| --- | --- | --- | --- |
| CCC(=O)NCCc1cnn2ccc3occc3c12 [Example 1, N-(2-furo[3,2-c]pyrazolo[1,5-a]pyridin-1-ylethyl)propanamide] | ≤ 100 nM | 104 to 106 °C | – |
| CC(=O)NCCC1CCc2cnc3c(c21)CCO3 (centres unmarked) [Example 19, N-[2-(1,6,7,8-tetrahydro-2H-cyclopenta[d]furo[2,3-b]pyridin-8-yl)ethyl]acetamide] | – | – | ≤ 100 nM |
| O=C(NCCC1CCc2cnc3c(c21)CCO3)C1CC1 (centres unmarked) [Example 26, N-[2-(1,6,7,8-tetrahydro-2H-cyclopenta[d]furo[2,3-b]pyridin-8-yl)ethyl]cyclopropanecarboxamide] | – | – | ≤ 100 nM |
| CCC(=O)NC/C=C1\CCc2ncc3c(c21)CCO3 [Example 32, N-[(2E)-2-(1,2,6,7-tetrahydro-8H-cyclopenta[b]furo[3,2-d]pyridin-8-ylidene)ethyl]propanamide] | – | 163 to 164 °C | – |
